# Non-standard residues stand in square brackets, D forms with d. No end group written: not given here. Oic = O=C(O)[C@@H]1C[C@@H]2CCCC[C@@H]2N1; dTic = O=C(O)[C@H]1Cc2ccccc2CN1
# Test system: bradykinin response of isolated guinea pig ileum
# Assay: Anti-bradykinin activity on isolated guinea pig ileum
# Settings: Table 1; higher numbers indicate higher potency
# Description: In general, Anti-bradykinin activity was determined by the classical guinea pig ileum assay and on Chinese hamster ovary (CHO) cells expressing cloned human bradykinin B2 receptors. Anti-tumor activity was determined on cultured human cancer cell lines using the standard tetrazolium (MTT) assay.
# Male Hartley guinea pigs that had been deprived of food overnight were sacrificed, and sections of terminal ileum, 25 mm in length, were dissected, attached to tissue holders and immersed in 10 ml tissue baths containing Krebs' solution bubbled with 95% O2/5% CO2. Tissues were placed under 1 g tension and incubated for 1 h equilibration. Concentration-effect curves were constructed to bradykinin in the absence and presence of new compounds.
row,Compound,GPI: pA2 for bradykinin antagonist activity on isolated guinea pig ileum
1,Ac-PaF(Mcg)-Arg [M118-1],4.9
2,F5c-Trp-Arg [M426],Inact
3,F5c-m-APa-Arg [M412],5.8
4,RPPGFT[dTic][Oic]-NH2 [B10284],7.7
5,Gun-Eac-DIgl-Oic-Arg [M42],5.0
6,F5c-Dpr(Fbz)-Arg [M688],Inact
7,F5c-p-Amb-APa-Arg [M352],4.7
8,Dcg-Igl-Arg [M70],4.8
9,DArg-Arg-Nig-Hyp-Gly-Igl-Ser-DIgl-Oic-Arg [B9960],7.7
10,DArg-Arg-Pro-Hyp-Gly-Thi-Ser-CpG-DCpG-DArg [B8858],5.2
11,F5c-DhPhe-Arg [M730],4.7
12,F5c-Tyr-Arg [M380],Inact
13,"Aaa-DArg-Arg-Pro-Hyp-Gly-(D,L)DMF-Ser-DTic-Oic-Arg [B9126-2]",7.3
14,F5c-p-Amb-Arg [M348],4.7
15,"Aca-DArg-Arg-Pro-Hyp-Gly-Thi-Ser-(D,L)Igl-Oic-Arg [B9224-2]",8.4
16,F5c-PNF-Arg [M732],4.9
17,DDD-(DArg-hPhe-Arg)2 [M554],5.1
18,RPPGFT[dTic][Oic]R [B10282],7.3
19,DArg-Arg-Pro-Hyp-Gly-Thi-Ser-DTic-Nc6G-Arg [B10014],7.6

row,Compound,GPI: pA2 for bradykinin antagonist activity on isolated guinea pig ileum
1,Dcg-Apa-Arg [M78],5.6
2,Dcg-p-Amb-Arg [M346],4.6
3,F5c-DArg-Arg-Aud-DTic-hPhe-Arg [M766],5.1
4,F5c-Tic-Arg [M382],4.7
5,Dcg-Pac-Gly-m-ABz-2-Nal-Arg [M200-2],4.9
6,Dcg-Gly-Cmp-Arg [M124],4.7
7,F5c-p-ABz-Arg [M148],5.1
8,DArg-Arg-NMF-Hyp-Gly-Thi-Ser-DIgl-Oic-Arg [B9966],6.9
9,F5c-Thi-Arg [M424],4.6
10,F5c-Lys(F5bz)-Arg [M682],4.9
11,"Aaa-DArg-Arg-Pro-Hyp-Gly-(D,L)DMF-Ser-DTic-Oic-Arg [B9126]",6.4
12,Dcg-2Nal-Arg [M10],4.8
13,Dcg-BtA-Arg [M68],4.9
14,"N=C(N)NCCCC(NC(=O)C=Cc1ccc(C(F)(F)F)cc1)C(=O)O (stereo not shown) [M374, Tfmc-Arg]",4.6
15,DDD-(Eac-Arg-Digl-Oic-Arg)2 [B10198-1],5.7
16,F5c-APb-Arg [M372],4.6
17,DArg-Arg-Pro-Hyp-Gly-Phe-Ser-DCpG-CpG-Arg [B8840],6.8
18,Aaa-DTic-hPhe-Arg [M764],4.8

# Same assay, conditions: guinea pig ileum
row,Compound,pD2 of bradykinin on ileum
1,"RPPGFSPFR [BK, reference compound]",7.4

# Same assay, conditions: isolated guinea pig ileum; pD2 of bradykinin is 7.4; higher numbers indicate higher potency
row,Compound,GPI: pA2 for bradykinin antagonist activity on isolated guinea pig ileum
1,CN1CCN(NC(=O)[C@H](Cc2ccc3ccccc3c2)NC(=O)C=Cc2ccc(NC(=O)CCCCCCCCCCC(=O)Nc3ccc(C=CC(=O)N[C@@H](Cc4ccc5ccccc5c4)C(=O)NN4CCN(C)CC4)cc3)cc2)CC1 [M480-2],5.6
2,O=C(O)CC(NC(=O)C(Cc1ccc2ccccc2c1)NC(=NC1CCCCC1)NC1CCCCC1)C(=O)O (stereo not shown) [M162],4.9
3,N=C(N)NC(Cc1ccc2ccccc2c1)C(=O)Nc1ccc(CC(=O)O)cc1 (stereo not shown) [M32],4.8
4,CC1(C)CC(NC(=O)C(CC(=O)O)NC(=O)C(Cc2ccc3ccccc3c2)NC(=NC2CCCCC2)NC2CCCCC2)CC(C)(C)N1 (stereo not shown) [M342],5.4
5,O=C(NC(CNC(=O)C(Cc1ccc2ccccc2c1)NC(=NC1CCCCC1)NC1CCCCC1)C(=O)O)C1CCNCC1 (stereo not shown) [M172],4.9
6,O=C(O)c1ccc(NC(=O)C(Cc2ccc3ccccc3c2)NC(=NC2CCCCC2)NC2CCCCC2)cc1 (stereo not shown) [M120],4.7
7,N=C(N)NC(Cc1ccc2ccccc2c1)C(=O)Nc1ccc(CC(=O)O)cc1 (stereo not shown) [M38],4.9
8,O=C(NC(Cc1ccc(NC(=NC2CCCCC2)NC2CCCCC2)cc1)C(=O)O)c1ccc2ccccc2c1 (stereo not shown) [M168-2],4.7
9,O=C(C=Cc1ccc(NC(=NC2CCCCC2)NC2CCCCC2)cc1)NCC(=O)Nc1cccc(C(=O)NC(Cc2ccc3ccccc3c2)C(=O)O)c1 (stereo not shown) [M340],4.8
10,O=C(O)c1cc(NC(=O)C(Cc2ccc3ccccc3c2)NC(=NC2CCCCC2)NC2CCCCC2)cc(NC(=NC2CCCCC2)NC2CCCCC2)c1 (stereo not shown) [M92-4],5.0
11,CC1(C)CC(NC(=O)[C@@H](NC(=NC2CCCCC2)NC2CCCCC2)C2Cc3ccccc3C2)CC(C)(C)N1Cc1ccccc1 [M258],5.0
12,O=C(O)c1cccc(NC(=O)C(Cc2ccc3ccccc3c2)NC(=NC2CCCCC2)NC2CCCCC2)c1 (stereo not shown) [M76],4.9
13,O=C(Cc1ccc(NC(=NC2CCCCC2)NC2CCCCC2)cc1)Nc1cccc(C(=O)O)c1 [M122-2],4.6
14,Nc1cc(NC(=O)C(Cc2ccc3ccccc3c2)NC(=NC2CCCCC2)NC2CCCCC2)cc(C(=O)O)c1 (stereo not shown) [M92-1],5.0
15,N=C(N)Nc1cc(NC(=O)C(Cc2ccc3ccccc3c2)NC(=NC2CCCCC2)NC2CCCCC2)cc(C(=O)O)c1 (stereo not shown) [M92-2],4.8
16,CC1(C)CC(NC(=O)C(CC(=O)O)NC(=O)Cc2ccc(NC(=O)C=Cc3ccc(C(F)(F)F)cc3)cc2)CC(C)(C)N1 (stereo not shown) [M368],4.7
17,O=C(O)Cc1ccc(NC(=O)C(NC(=NC2CCCCC2)NC2CCCCC2)C2Cc3ccccc3C2)cc1 (stereo not shown) [M72-1],4.7
18,COc1cc(C=CC(=O)NC(Cc2c(F)c(F)c(F)c(F)c2F)C(=O)NC(Cc2cccnc2)C(=O)O)cc(OC)c1O (stereo not shown) [M136],Inact
19,CC1(C)CC(NC(=O)C(CC(=O)O)NC(=O)Cc2ccc(NC(=O)C=Cc3c(F)c(F)c(F)c(F)c3F)cc2)CC(C)(C)N1 (stereo not shown) [M364],4.7
20,O=C(O)c1cccc(NC(=O)C(Cc2ccc3ccccc3c2)NC(=NC2CCCCC2)NC2CCCCC2)c1 (stereo not shown) [M112],5.1
